# Experimental data from patent publication US5034520A, “Process for recovering heparinic oligosaccharides with an affinity for cell growth factors” (Sanofi, priority 1986, dated 1991).
# What was measured:
# [1] = system: human endothelial cells of the umbilical vein; test: Proliferation of human umbilical vein endothelial cells, with or without FGFa; format: cell-based
# Method: At confluence (5-7 days), the cells are detached by an EDTA-trypsin mixture.
# 48 hours latter, growth factor is added again. After 4 days of culture, the cells are detached by the EDTA-trypsin mixture and the cells are counted by means of a cell counter (Coulter Counter ® Coultronics). Each experimental curve (FIG. 14A-D) represents a typical experiment conducted in triplicate. Each experiment is repeated 2 to 3 times.
# [2] = system: LE II cells (endothelial cells of mouse lung); test: Tritiated thymidine incorporation in quiescent LE II cells, with or without anionic FGF; format: cell-based
# Method: LE II cells (endothelial cells of mouse lung) are cultivated on plates containing 24 wells in the presence of 10% foetal calf serum until 3/4 of confluence is attained.
# The cells are then maintained for 48 hours in only 0.2% serum and rendered quiescent.
# The growth medium is then supplemented with either fibroblast growth factor (FGF) or the oligosaccharide fragments to be tested or both products simultaneously (FGF+product to be tested).
# The culture is maintained for a further 24 hours and tritiated thymidine is added 4 hours before the end of the experiment.
# The radioactivity incorporated is then counted; each measurement is made in triplicate.
Molecule,"ED 50 of FGFa (50% of maximal proliferation) ([1]; FGFa in the absence of oligosaccharides, 10% FCS)","maximal increase of the number of cells ([1]; FGFa without oligosaccharides, versus 10% FCS alone) [%]",dose giving plateau of stimulation ([2]; anionic FGF alone (FIG. 10)) [ng/mL],"plateau of thymidine incorporation after stimulation ([2]; anionic FGF alone, 5 ng/ml (FIG. 10))"
FGFa: acidic FGF (FGFa),about 7 ng/ml,230,–,–
"anionic FGF: anionic FGF prepared from beef brain according to Lobb and Fett (protein, UniProt P03968 16-155, looked up) Fibroblast growth factor 1: FNLPLGNYKKPKLLYCSNGGYFLRILPDGTVDGTKDRSDQHIQLQLCAESIGEVYIKSTETGQFLAMDTDGLLYGSQTPNEECLFLERLEENHYNTYISKKHAEKHWFVGLKKNGRSKLGPRTHFGQKAILFLPLPVSSD",–,–,5,"126,000 cpm"
